The numbers were not newly measured in patent US6663884B2, “Method of detoxifying the egg of puffer fish for creating healthy foodstuffs and the resulting product” (priority 2002, dated 2003), which cites them from elsewhere.

Each structure is given as a SMILES string.

Consider `NC1=N[C@H](O)[C@H]2[C@H]3O[C@]4(O)O[C@@H]([C@@H](O)[C@@]2(N1)[C@@H]4O)[C@]3(O)CO` [tetrodotoxin], for which the solubility in water result was “soluble in water”.
